Measurements reported in patent US10729666B2, “Use of GABAA receptor reinforcing agent in preparation of sedative and anesthetic medicament” (Sichuan Haisco Pharmaceutical Co., Ltd., priority 2014, dated 2020).

Legend:
[1] = Righting reflex experiment on mice; conditions: both, ICR, mouse, in vivo, iv
Protocol: (§1) LD5 (5% lethal dose): dose required to cause 5% of animals to die in a test.
(§2) If a normal animal was able to immediately body-right after being pushed over or made lying on its back, such a reflex was determined as the righting reflex. Otherwise, loss of the righting reflex and the time of loss were recorded, and a reflex recovery time was recorded when the animal restored the righting reflex. The period from finishing of drug administration until loss of the righting reflex was recorded as the anesthesia induction time, and the period from loss of the righting reflex until recovery of the righting reflex was recorded as the anesthesia maintenance time.
(§3) TI (therapeutic index, i.e. LD50/ED50), SI (safety index, i.e. LD5/ED95).
(§4) MTD (maximum tolerated dose): the maximum dose able to cause 100% of animals to loss the righting index without death.
(§5) Indicators such as median effective dose (ED50), median lethal dose (LD50), therapeutic index (TI, i.e. LD50/ED50), safety index (SI, i.e. LD5/ED95), anesthesia induction time, anesthesia maintenance time, and maximum tolerated dose (MTD) were used to evaluate the effect and safety of anesthesia. […] After adapting to the laboratory environment, laboratory animals were fasted for 12 hours. On the next day, administration was carried out at 10 mg/kg body weight. Upon intravenous injection, the time of loss of the righting reflex was recorded. The period from finishing of drug administration until loss of the righting reflex was recorded as the anesthesia induction time, and the period from loss of the righting reflex until recovery of the righting reflex was recorded as the anesthesia maintenance time. The anesthesia induction time and the anesthesia maintenance time were used to indicate how strong an anesthetic effect was. Meanwhile, the dose required to cause a 7-min anesthesia (HD7) was measured and used to evaluate relative efficacy.

ICR mice = experiment: Righting reflex experiment on mice; conditions: for HD7 / Anesthesia induction time / Anesthesia maintenance time / SI / TI: intravenous; for HD7: dose required to cause a 7-min anesthesia; for Anesthesia induction time: end of administration until loss of righting reflex; for Anesthesia maintenance time: loss until recovery of righting reflex; for ED50: Mus musculus, iv; for SI: safety index, LD5/ED95; for TI: therapeutic index, LD50/ED50
Protocol: as §1, §2, §3, §4, §5

healthy male volunteers = experiment: Preliminary pharmacodynamic studies with healthy humans; format: in vivo; conditions: single intravenous injection of the emulsion injection
Protocol: The subjects were fasted during the night for 6 hours or longer. The Emulsion injection of Compound 7 was administered by single intravenous injection. Groups 1 and 2 were administered by manual push injection for 2 to 3 seconds, and Groups 3-8 were administered by constant-rate pump injection for more than 1 min.
Primary indices include RASS and the tolerance to pain during injection (Verbal rating scale (VRS) was used to allow the researchers to know the pain degree of subjects); and secondary indices include cardiovascular indices and EEG (electroencephalogram) and BIS (Bispectral index) associated with the cognitive function recovery evaluation (QoR-40).

| Compound | MTD [1] | HD7 (ICR mice; ICR mice) | Anesthesia induction time (ICR mice; ICR mice) | Anesthesia maintenance time (ICR mice; ICR mice) | ED50 (ICR mice) | SI (ICR mice; ICR mice) | TI (ICR mice; ICR mice) | dose with which subjects started showing light anesthesia (healthy male volunteers) | LD50 [1] | LD50 (ICR mice; ICR mice, intravenous injection, solvent 10% DMSO, 15% solutol HS15, 75% saline) |
| --- | --- | --- | --- | --- | --- | --- | --- | --- | --- | --- |
| CC(C)c1cccc(C(C)C2CC2)c1O (racemic) [Compound 1, 2-(1-cyclopropylethyl)-6-isopropylphenol] | 10 mg/kg | 6.0 mg/kg | <15.0 s | 660.4 s | 3.7 mg/kg | 1.7 | 6.1 | – | – | – |
| CC(C)c1cccc([C@H](C)C2CC2)c1O [Compound 7, 2-[(1R)-1-cyclopropylethyl]-6-isopropyl-phenol] | – | – | – | – | – | – | – | 0.128 mg/kg | – | – |
| CC(C)c1cccc([C@@H](C)C2CC2)c1O [Compound 8, 2-[(1S)-1-cyclopropylethyl]-6-isopropyl-phenol] | 20 mg/kg | – | <15.0 s | 1031.6 s | 5.8 mg/kg | 3.5 | 7.5 | – | 43.6 mg/kg | – |
| C[C@H](c1cccc([C@H](C)C2CC2)c1O)C1CC1 [Compound 9, 2-[(1S)-1-cyclopropylethyl]-6-[(1R)-1-cyclopropylethyl]phenol] | – | 2.5 mg/kg | – | – | – | – | – | – | – | – |
| C[C@@H](c1cccc([C@H](C)C2CC2)c1O)C1CC1 [Compound 10, 2,6-bis[(1R)-1-cyclopropylethyl]phenol] | 5 mg/kg | – | – | 754.4 s | 1.5 mg/kg | 3.8 | 4.1 | – | – | 6.3 mg/kg |
